According to BindingDB's records for patent US12208088 (Genentech, 2025):

The molecules below were run against Mitogen-activated protein kinase kinase kinase kinase 1 (Homo sapiens, UniProt Q92918) (assay: HPK1 Lantha Binding Assay).
Method: For the binding assay, 4 ul 2×HPK1 and Eu-anti-GST antibody were added to each well of the assay plate using a Multidrop reagent dispenser. The solutions were incubated in a 23 C incubator for 1 h. To each well of the assay plate was added 4 ul 2× Tracer-222 using a Multidrop reagent dispenser. The solutions were again incubated in a 23 C incubator for 1 h. The results of the assay were read using an Envision plate reader with the following parameters: TR_FRET, 340 ex/615 and 665em; 100 usec Delay; and 200 usec integration.

Sequence of Mitogen-activated protein kinase kinase kinase kinase 1 (Q92918 whole entry): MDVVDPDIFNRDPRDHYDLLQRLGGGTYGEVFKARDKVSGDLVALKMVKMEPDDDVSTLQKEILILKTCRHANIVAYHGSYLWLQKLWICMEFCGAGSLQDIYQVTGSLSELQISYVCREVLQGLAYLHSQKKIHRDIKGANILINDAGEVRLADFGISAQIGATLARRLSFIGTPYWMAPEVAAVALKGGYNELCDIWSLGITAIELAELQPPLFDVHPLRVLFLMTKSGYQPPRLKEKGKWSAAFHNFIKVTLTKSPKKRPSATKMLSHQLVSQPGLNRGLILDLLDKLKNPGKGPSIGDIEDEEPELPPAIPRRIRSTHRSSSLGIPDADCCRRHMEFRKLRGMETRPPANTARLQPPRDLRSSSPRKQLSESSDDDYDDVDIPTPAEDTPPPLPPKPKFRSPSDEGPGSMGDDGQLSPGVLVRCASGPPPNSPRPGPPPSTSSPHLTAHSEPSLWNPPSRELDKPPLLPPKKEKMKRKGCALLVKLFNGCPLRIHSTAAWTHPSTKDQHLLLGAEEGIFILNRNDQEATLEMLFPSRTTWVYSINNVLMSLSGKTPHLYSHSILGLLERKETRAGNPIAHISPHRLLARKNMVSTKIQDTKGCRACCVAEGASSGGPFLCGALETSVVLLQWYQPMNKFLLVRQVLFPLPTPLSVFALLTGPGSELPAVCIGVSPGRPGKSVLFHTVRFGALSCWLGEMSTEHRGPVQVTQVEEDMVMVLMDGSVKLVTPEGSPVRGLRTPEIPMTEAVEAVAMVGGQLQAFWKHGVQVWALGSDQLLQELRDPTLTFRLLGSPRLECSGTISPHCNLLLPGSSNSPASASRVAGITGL

| SMILES | Ki [nM] |
| --- | --- |
| CC1CNC(=O)N1c1c(N)ccc(-c2cnc3c(c2Cl)C2(CC2)CN3)c1F (configuration not stated) [US12208088, Compound 25] | 43.9 |
| CC(=O)Nc1cc(C(=O)N(C)C)cc(-c2cnc3c(c2Cl)C2(CC2)CN3)c1 [US12208088, Compound 33] | 771 |
| CN(CC(C)(C)O)C(=O)c1c(N)ccc(-c2cnc3c(c2Cl)C2(CC2)CN3)c1F [US12208088, Compound 35] | 22.8 |
| O=C1NCCC1c1cccc(-c2cnc3c(c2)C2(CC2)CN3)c1F (configuration not stated) [US12208088, Compound 92] | 28.4 |
| CN(C)C(=O)c1c(N)ccc(-c2cnc3c(c2Cl)C2(CCC(Cn4cncn4)C2)CN3)c1F (configuration not stated) [US12208088, Compound 129] | 23.4 |
| CN(C)C(=O)c1ccc(-c2cnc3c(c2Cl)C2(CC=CC2)CN3)cc1Cl [US12208088, Compound 192] | 163 |
| N#CC1CCCCN1C(=O)c1cccc(-c2cnc3c(c2Cl)C2(CC=CC2)CN3)c1F (configuration not stated) [US12208088, Compound 264] | 11.5 |
